Test results published in US7087762B2, “Long-lasting antimicrobial reaction product of allantoin and formaldehyde containing a low level of free formaldehyde” (ISP Investments Inc., priority 2002, dated 2006).

Columns and labels:
C. Albican ATTC1023 = experiment: Activity against yeast and mold, 0.3% test solutions; type: cell-based, Candida albicans; parameters: key: + Growth; − No Growth
Description: Activity against yeast and mold:

AN (Aspergillus niger) [1] = experiment: Preservative challenge test, screening emulsion; type: cell-based
Method: (§1) A typical cosmetic emulsion was prepared for microbiological challenge testing and predetermined admixtures of a methylol compound and IPBC were added at various use levels. The emulsion thus prepared had the following composition:
(§2) To prepare the emulsion, Phases A and B were heated separately to 75°–80° C. Phase A then was added to Phase B with mixing. The mixture then was cooled to 55°–60° C. At this point the desired amount of the preservative admixture was added and the product was cooled to 50° C. while stirring. The citric acid solution then was added to adjust the pH and the mixture was stirred until a temperature of 30° C. was reached.
(§3) The challenge tests were carried out using the following microorganisms: SA, ECOLI, PSA, PC, AN and CAN, in this manner. 50 g aliquots of the test emulsion containing various amounts of the preservative admixture were inoculated with approximately 10^7–10^8 of the challenge organisms. The test samples then were stirred to disperse the challenge inoculum. The samples were incubated and assayed at 48 hours, 7, 14, 21 and 28 days. The assays were performed on 1 g of the test sample by serially diluting 10^1 to 10^6 of the original concentration. The plating medium for bacteria was Letheen agar and for fungi it was low pH Mycophil agar with Tween 20. Each plated sample was incubated for 48 hours at 37° C. for bacteria, 5 days at 25° C. for mold, and 3 days at 25° C. for fungi. After incubation, readings of the number of colonies per milliliter (cfu/ml) were made. At 21 days the test product was reinoculated with half of the original inoculum.

CAN (Candida albicans) [2] = experiment: Preservative challenge test, screening emulsion; type: cell-based
Method: as §1, §2, §3

[3] = system: EC (ECOLI, Escherichia coli); experiment: Preservative challenge test, screening emulsion; type: cell-based
Method: as §1, §2, §3

[4] = system: PSA (Pseudomonas aeruginosa); experiment: Preservative challenge test, screening emulsion; type: cell-based
Method: as §1, §2, §3

AN (Aspergillus niger) [5] = experiment: Preservative challenge test, nonionic emulsion; type: cell-based
Method: as §1, §3

CAN (Candida albicans) [6] = experiment: Preservative challenge test, nonionic emulsion; type: cell-based
Method: as §1, §3

[7] = system: PSA (Pseudomonas aeruginosa); experiment: Preservative challenge test, nonionic emulsion; type: cell-based
Method: as §1, §3

[8] = system: SA (Staphylococcus aureus); experiment: Preservative challenge test, nonionic emulsion; type: cell-based
Method: as §1, §3

O=C1C(N(CO)C(=O)NCO)N(CO)C(=O)N1CO (stereo not shown) [Germall II]
90,000 cfu/ml: cfu/ml, 14 days (CAN (Candida albicans) [2]; 500 ppm)
46,000 cfu/ml: cfu/ml, 21 days (CAN (Candida albicans) [2]; 250 ppm)
490,000 cfu/ml: cfu/ml, 21 days (CAN (Candida albicans) [2]; 2000 ppm)
290,000 cfu/ml: cfu/ml, 48 hrs (CAN (Candida albicans) [2]; 250 ppm)
730,000 cfu/ml: cfu/ml, 21 days (CAN (Candida albicans) [6]; 2000 ppm)
9,600 cfu/ml: cfu/ml, 7 days (CAN (Candida albicans) [2]; 2000 ppm)
160,000 cfu/ml: cfu/ml, 48 hrs (CAN (Candida albicans) [2]; 1000 ppm)
680,000 cfu/ml: cfu/ml, 28 days (CAN (Candida albicans) [2]; 250 ppm)
50,000 cfu/ml: cfu/ml, 48 hrs (AN (Aspergillus niger) [1]; 250 ppm)
100 cfu/ml: cfu/ml, 28 days (AN (Aspergillus niger) [1]; 250 ppm)
100,000 cfu/ml: cfu/ml, 7 days (CAN (Candida albicans) [2]; 500 ppm)
210,000 cfu/ml: cfu/ml, 28 days (CAN (Candida albicans) [2]; 1000 ppm) | cfu/ml, 28 days (CAN (Candida albicans) [2]; 2000 ppm)
5500 cfu/ml: cfu/ml, 48 hrs ([3]; 250 ppm)
>1E6 cfu/ml: cfu/ml, 28 days (CAN (Candida albicans) [6]; 2000 ppm) | cfu/ml, 28 days (CAN (Candida albicans) [6]; 4000 ppm)
460,000 cfu/ml: cfu/ml, 21 days (CAN (Candida albicans) [6]; 4000 ppm)
260,000 cfu/ml: cfu/ml, 21 days (CAN (Candida albicans) [2]; 1000 ppm)
50 cfu/ml: cfu/ml, 48 hrs (CAN (Candida albicans) [6]; 4000 ppm)
170,000 cfu/ml: cfu/ml, 7 days (CAN (Candida albicans) [2]; 250 ppm) | cfu/ml, 48 hrs (CAN (Candida albicans) [2]; 500 ppm)
10,000 cfu/ml: cfu/ml, 7 days (CAN (Candida albicans) [6]; 4000 ppm)
63,000 cfu/ml: cfu/ml, 14 days (CAN (Candida albicans) [2]; 1000 ppm)
−: Growth, C. Albican ATTC1023 (C. Albican ATTC1023)
650,000 cfu/ml: cfu/ml, 14 days (CAN (Candida albicans) [6]; 2000 ppm)
720,000 cfu/ml: cfu/ml, 7 days (CAN (Candida albicans) [6]; 2000 ppm)
<10 cfu/ml: cfu/ml, 7 days (AN (Aspergillus niger) [1]; 250 ppm) | cfu/ml, 14 days (AN (Aspergillus niger) [1]; 250 ppm) | cfu/ml, 21 days (AN (Aspergillus niger) [1]; 250 ppm) | cfu/ml, 7 days (AN (Aspergillus niger) [1]; 500 ppm) | cfu/ml, 14 days (AN (Aspergillus niger) [1]; 500 ppm) | cfu/ml, 21 days (AN (Aspergillus niger) [1]; 500 ppm) | cfu/ml, 28 days (AN (Aspergillus niger) [1]; 500 ppm) | cfu/ml, 48 hrs (AN (Aspergillus niger) [1]; 1000 ppm) | cfu/ml, 7 days (AN (Aspergillus niger) [1]; 1000 ppm) | cfu/ml, 14 days (AN (Aspergillus niger) [1]; 1000 ppm) | cfu/ml, 21 days (AN (Aspergillus niger) [1]; 1000 ppm) | cfu/ml, 28 days (AN (Aspergillus niger) [1]; 1000 ppm) | cfu/ml, 48 hrs (AN (Aspergillus niger) [1]; 2000 ppm) | cfu/ml, 7 days (AN (Aspergillus niger) [1]; 2000 ppm) | cfu/ml, 14 days (AN (Aspergillus niger) [1]; 2000 ppm) | cfu/ml, 21 days (AN (Aspergillus niger) [1]; 2000 ppm) | cfu/ml, 28 days (AN (Aspergillus niger) [1]; 2000 ppm) | cfu/ml, 7 days ([3]; 250 ppm) | cfu/ml, 14 days ([3]; 250 ppm) | cfu/ml, 21 days ([3]; 250 ppm) | cfu/ml, 28 days ([3]; 250 ppm) | cfu/ml, 7 days ([3]; 500 ppm) | cfu/ml, 14 days ([3]; 500 ppm) | cfu/ml, 21 days ([3]; 500 ppm) | cfu/ml, 28 days ([3]; 500 ppm) | cfu/ml, 48 hrs ([3]; 1000 ppm) | cfu/ml, 7 days ([3]; 1000 ppm) | cfu/ml, 14 days ([3]; 1000 ppm) | cfu/ml, 21 days ([3]; 1000 ppm) | cfu/ml, 28 days ([3]; 1000 ppm) | cfu/ml, 48 hrs ([3]; 2000 ppm) | cfu/ml, 7 days ([3]; 2000 ppm) | cfu/ml, 14 days ([3]; 2000 ppm) | cfu/ml, 21 days ([3]; 2000 ppm) | cfu/ml, 28 days ([3]; 2000 ppm) | cfu/ml, 48 hrs ([4]; 250 ppm) | cfu/ml, 7 days ([4]; 250 ppm) | cfu/ml, 14 days ([4]; 250 ppm) | cfu/ml, 21 days ([4]; 250 ppm) | cfu/ml, 28 days ([4]; 250 ppm) | cfu/ml, 48 hrs ([4]; 500 ppm) | cfu/ml, 7 days ([4]; 500 ppm) | cfu/ml, 14 days ([4]; 500 ppm) | cfu/ml, 21 days ([4]; 500 ppm) | cfu/ml, 28 days ([4]; 500 ppm) | cfu/ml, 48 hrs ([4]; 1000 ppm) | cfu/ml, 7 days ([4]; 1000 ppm) | cfu/ml, 14 days ([4]; 1000 ppm) | cfu/ml, 21 days ([4]; 1000 ppm) | cfu/ml, 28 days ([4]; 1000 ppm) | cfu/ml, 48 hrs ([4]; 2000 ppm) | cfu/ml, 7 days ([4]; 2000 ppm) | cfu/ml, 14 days ([4]; 2000 ppm) | cfu/ml, 21 days ([4]; 2000 ppm) | cfu/ml, 28 days ([4]; 2000 ppm) | cfu/ml, 48 hrs (AN (Aspergillus niger) [5]; 2000 ppm) | cfu/ml, 7 days (AN (Aspergillus niger) [5]; 2000 ppm) | cfu/ml, 14 days (AN (Aspergillus niger) [5]; 2000 ppm) | cfu/ml, 21 days (AN (Aspergillus niger) [5]; 2000 ppm) | cfu/ml, 28 days (AN (Aspergillus niger) [5]; 2000 ppm) | cfu/ml, 48 hrs (AN (Aspergillus niger) [5]; 4000 ppm) | cfu/ml, 7 days (AN (Aspergillus niger) [5]; 4000 ppm) | cfu/ml, 14 days (AN (Aspergillus niger) [5]; 4000 ppm) | cfu/ml, 21 days (AN (Aspergillus niger) [5]; 4000 ppm) | cfu/ml, 28 days (AN (Aspergillus niger) [5]; 4000 ppm) | cfu/ml, 48 hrs ([7]; 2000 ppm) | cfu/ml, 7 days ([7]; 2000 ppm) | cfu/ml, 14 days ([7]; 2000 ppm) | cfu/ml, 21 days ([7]; 2000 ppm) | cfu/ml, 28 days ([7]; 2000 ppm) | cfu/ml, 48 hrs ([7]; 4000 ppm) | cfu/ml, 7 days ([7]; 4000 ppm) | cfu/ml, 14 days ([7]; 4000 ppm) | cfu/ml, 21 days ([7]; 4000 ppm) | cfu/ml, 28 days ([7]; 4000 ppm) | cfu/ml, 48 hrs ([8]; 2000 ppm) | cfu/ml, 7 days ([8]; 2000 ppm) | cfu/ml, 14 days ([8]; 2000 ppm) | cfu/ml, 21 days ([8]; 2000 ppm) | cfu/ml, 28 days ([8]; 2000 ppm) | cfu/ml, 48 hrs ([8]; 4000 ppm) | cfu/ml, 7 days ([8]; 4000 ppm) | cfu/ml, 14 days ([8]; 4000 ppm) | cfu/ml, 21 days ([8]; 4000 ppm) | cfu/ml, 28 days ([8]; 4000 ppm)
78,000 cfu/ml: cfu/ml, 7 days (CAN (Candida albicans) [2]; 1000 ppm)
150 cfu/ml: cfu/ml, 48 hrs (CAN (Candida albicans) [2]; 2000 ppm)
48,900 cfu/ml: cfu/ml, 14 days (CAN (Candida albicans) [2]; 2000 ppm)
930,000 cfu/ml: cfu/ml, 28 days (CAN (Candida albicans) [2]; 500 ppm)
610 cfu/ml: cfu/ml, 48 hrs ([3]; 500 ppm)
620,000 cfu/ml: cfu/ml, 14 days (CAN (Candida albicans) [6]; 4000 ppm)
320,000 cfu/ml: cfu/ml, 21 days (CAN (Candida albicans) [2]; 500 ppm) | cfu/ml, 48 hrs (CAN (Candida albicans) [6]; 2000 ppm)
40 cfu/ml: cfu/ml, 48 hrs (AN (Aspergillus niger) [1]; 500 ppm)
71,000 cfu/ml: cfu/ml, 14 days (CAN (Candida albicans) [2]; 250 ppm)
